{"source": "patent US20140199327A1", "about": "“METHODS OF PROMOTING DIFFERENTIATION” (Genentech, Inc., priority 2011, published 2014)", "molecules": {"B1": {"name": "USP1-Flag (wild-type human USP1 with in-frame C-terminal Flag epitope) (protein)", "chain": "MPGVIPSESNGLSRGSPSKKNRLSLKFFQKKETKRALDFTDSQENEEKASEYRASEIDQVVPAAQSSPINCEKRENLLPFVGLNNLGNTCYLNSILQVLYFCPGFKSGVKHLFNIISRKKEALKDEANQKDKGNCKEDSLASYELICSLQSLIISVEQLQASFLLNPEKYTDELATQPRRLLNTLRELNPMYEGYLQHDAQEVLQCILGNIQETCQLLKKEEVKNVAELPTKVEEIPHPKEEMNGINSIEMDSMRHSEDFKEKLPKGNGKRKSDTEFGNMKKKVKLSKEHQSLEENQRQTRSKRKATSDTLESPPKIIPKYISENESPRPSQKKSRVKINWLKSATKQPSILSKFCSLGKITTNQGVKGQSKENECDPEEDLGKCESDNTTNGCGLESPGNTVTPVNVNEVKPINKGEEQIGFELVEKLFQGQLVLRTRCLECESLTERREDFQDISVPVQEDELSKVEESSEISPEPKTEMKTLRWAISQFASVERIVGEDKYFCENCHHYTEAERSLLFDKMPEVITIHLKCFAASGLEFDCYGGGLSKINTPLLTPLKLSLEEWSTKPTNDSYGLFAVVMHSGITISSGHYTASVKVTDLNSLELDKGNFVVDQMCEIGKPEPLNEEEARGVVENYNDEEVSIRVGGNTQPSKVLNKKNVEAIGLLGGQKSKADYELYNKASNPDKVASTAFAENRNSETSDTTGTHESDRNKESSDQTGINISGFENKISYVVQSLKEYEGKWLLFDDSEVKVTEEKDFLNSLSPSTSPTSTPYLLFYKKL"}, "B2": {"name": "USP1 C90S-Flag (catalytically inactive point mutant of human USP1 with C-terminal Flag epitope) (protein)", "chain": "B1 chain with C90S"}, "B3": {"name": "endogenous ID2 (U2-OS, HOS and 293T cells) (other)", "chain": "MKAFSPVRSVRKNSLSDHSLGISRSKTPVDDPMSLLYNMNDCYSKLKELVPSIPQNKKVSKMEILQHVIDYILDLQIALDSHPTIVSLHHQRPGQNQASRTPLTTLNTDISILSLQASEFPSELMSNDSKALCG", "notes": "Endogenous protein of human cell lines"}, "B4": {"name": "USP33-Flag (human USP33 with C-terminal Flag epitope) (protein)", "chain": "MTGSNSHITILTLKVLPHFESLGKQEKIPNKMSAFRNHCPHLDSVGEITKEDLIQKSLGTCQDCKVQGPNLWACLENRCSYVGCGESQVDHSTIHSQETKHYLTVNLTTLRVWCYACSKEVFLDRKLGTQPSLPHVRQPHQIQENSVQDFKIPSNTTLKTPLVAVFDDLDIEADEEDELRARGLTGLKNIGNTCYMNAALQALSNCPPLTQFFLDCGGLARTDKKPAICKSYLKLMTELWHKSRPGSVVPTTLFQGIKTVNPTFRGYSQQDAQEFLRCLMDLLHEELKEQVMEVEEDPQTITTEETMEEDKSQSDVDFQSCESCSNSDRAENENGSRCFSEDNNETTMLIQDDENNSEMSKDWQKEKMCNKINKVNSEGEFDKDRDSISETVDLNNQETVKVQIHSRASEYITDVHSNDLSTPQILPSNEGVNPRLSASPPKSGNLWPGLAPPHKKAQSASPKRKKQHKKYRSVISDIFDGTIISSVQCLTCDRVSVTLETFQDLSLPIPGKEDLAKLHSSSHPTSIVKAGSCGEAYAPQGWIAFFMEYVKRFVVSCVPSWFWGPVVTLQDCLAAFFARDELKGDNMYSCEKCKKLRNGVKFCKVQNFPEILCIHLKRFRHELMFSTKISTHVSFPLEGLDLQPFLAKDSPAQIVTYDLLSVICHHGTASSGHYIAYCRNNLNNLWYEFDDQSVTEVSESTVQNAEAYVLFYRKSSEEAQKERRRISNLLNIMEPSLLQFYISRQWLNKFKTFAEPGPISNNDFLCIHGGVPPRKAGYIEDLVLMLPQNIWDNLYSRYGGGPAVNHLYICHTCQIEAEKIEKRRKTELEIFIRLNRAFQKEDSPATFYCISMQWFREWESFVKGKDGDPPGPIDNTKIAVTKCGNVMLRQGADSGQISEETWNFLQSIYGGGPEVILRPPVVHVDPDILQAEEKIEVETRSL"}}, "key": {"proteasome [1]": {"system": "proteasome", "test": "ID protein abundance after proteasome inhibition in U2-OS cells", "format": "cell-based, human", "description": "(§1) The human cell lines 143B, 293T, HOS, MG-63, SAOS-2, SJSA, and U2-OS (ATCC) were maintained in DMEM with 10% FBS (Sigma), 10 units/ml penicillin, and 10 μg/ml streptomycin (Gibco). Primary human osteoblasts (PromoCell) were expanded in primary osteoblast medium (PromoCell) and subcultured in DMEM supplemented as above. Primary human mesenchymal stem cells derived from normal bone marrow (Lonza) were subcultured in mesenchymal stem cell growth medium (Lonza). For osteogenic differentiation studies, hMSC were cultured in osteogenic differentiation medium (Lonza) supplemented with 100 ng/mL BMP-9 (R&D Systems). Primary human osteosarcomas were obtained from CytoMix, LLC, and from the Cooperative Human Tissue Network. […] Murine NIH-3T3 (ATCC) were cultured in supplemented DMEM. Wild-type and USP1^−/− DT-40 cells were a kind gift from K. Patel and were cultured in RPMI with 7% FBS and 3% chicken serum (Gibco). MG-132 (Calbiochem) was used at 10 μM. Cycloheximide (Sigma) was used at 25 μg/ml.\n(§2) Rat monoclonal antibodies were raised against the C-terminal 100 amino-acids of human USP1 or WDR48 to produce the monoclonal USP1 antibody 5E10 and WDR48 antibody 9F10. […]"}, "proteasome [2]": {"system": "proteasome", "test": "ID2 abundance after proteasome inhibition in DT40 cells", "format": "cell-based, chicken", "description": "as §1"}, "proteasome [3]": {"system": "proteasome", "test": "ID2 abundance after proteasome inhibition in 293T cells", "format": "cell-based, human", "conditions": "MG-132 10 μM", "description": "as §1, §2"}, "USP1": {"system": "USP1", "test": "In vitro deubiquitination assay", "format": "biochemical, human", "conditions": "purified USP1 and ubiquitinated ID2 from 293T cells", "description": "293T cells were transfected with USP1-Flag, USP1-[…]-Flag or ID2-Flag and HA-ubiquitin in separate batches. Ubiquitinated ID2-Flag was immunoprecipitated as described above from SDS-boiled lysates. USP1 and USP1 […] were immunoprecipitated with Flag M2-agarose beads following lysis in NP-40 lysis buffer. All samples were eluted from beads with 500 μg/ml 3×Flag peptide (Sigma). Samples were recombined in deubiquitination buffer (20 mM HEPES, 20 mM NaCl, 100 μg/ml BSA, 500 μM EDTA, 1 mM DTT, pH=8.3) and incubated for the indicated times at room temperature. Ubiquitin levels were assessed by immunoblot with HA antibodies."}, "[4]": {"system": "143B osteosarcoma xenograft", "test": "143B osteosarcoma xenograft model", "format": "in vivo, NCr nude mice", "description": "U2-OS, HOS, or SAOS cells were transfected three times with pRS shUSP1 or shCTL as follows: Cells were initially transfected with shUSP1 or shCTL, cultured for 2 days, and selected with puromycin for 3 days. Cells were retransfected with pMACS and shUSP1 or shCTL, cultured for 2 days, sorted by anti-H-2K^k bead sort (Miltenyi), cultured for 1 day, and serially re-transfected with shUSP1 or shCTL. Cells were cultured for an additional 3 days and osteoblast and hMSC markers were assessed by flow cytometry, real-time RT-PCR, and ALP assay. 143B cells were transduced with pTRIPZ-based inducible USP1 or control shRNA vectors and puromycin-resistant cells were subcultured.\n8-week-old female NCr nude mice were injected subcutaneously in the right hind flank with 2.5×10^6 143 B shUSP1 cells in a volume of 100 μl of HBSS+matrigel. Doxycycline-treated mice were fed 1 mg/mL solutions of doxycycline in 5% sucrose water. Mice were monitored for tumor establishment and growth as well as body weight changes. When mice in a given group achieved a mean tumor volume of 2000 mm^3 and/or reached 78 days post-inoculation, mice were euthanized and dissected to confirm the presence or absence of tumor formation."}, "[5]": {"target": "T1, ubiquitinated ID2-Flag (ID2 with C-terminal Flag epitope, modified with HA-ubiquitin, affinity purified from 293T cells)", "T1 chain": "B3 chain"}, "[6]": {"target": "T2, endogenous USP1 (U2-OS and HOS osteosarcoma cells) (human, UniProt O94782 1-785)", "T2 construct": "Endogenous protein immunoprecipitated from human cell lines", "T2 sequence": "B1 chain", "test": "immunoprecipitation of endogenous USP1 from U2-OS cells, blot for ID2; control with nonspecific IgG", "quoted_text": "ID2-Flag was immunoprecipitated from SDS/heat-denatured cell lysates. […] Control immunoprecipitations were with nonspecific IgG.\n(A) Western blot (WB) analysis of cultured primary human osteoblasts and human osteosarcoma cell lines. […] Control immunoprecipitations were with nonspecific IgG. […] Bars represent the mean±s.d. of triplicate observations. […] Un, untransfected."}, "[7]": {"target": "T3, ID2 (co-transfected / co-expressed in 293T cells)", "T3 chain": "B3 chain"}}, "note": "Substitutions are numbered along the chain they refer to. Numbers in names are those of the source. Where a SMILES comes first, the peptide text is derived from it. The star is where a group is joined. Cbz = O=C(OCc1ccccc1)*", "data": [{"molecule": "CC(C)C[C@@H](C=O)NC(=O)[C@H](CC(C)C)NC(=O)[C@H](CC(C)C)NC(=O)OCc1ccccc1", "note": "[MG-132] (Cbz-Leu-Leu-Leu-aldehyde)", "values": [{"measurement": "ID expression after USP1 knockdown", "setting": "proteasome [1]; U2-OS cells with USP1 knockdown", "value": "did restore ID expression"}, {"measurement": "ID protein abundance", "setting": "proteasome [1]; U2-OS cells, MG-132 alone", "value": "did not by itself alter ID protein abundance"}, {"measurement": "ID2 abundance", "setting": "proteasome [2]; USP1−/− DT40 cells", "value": "increased ID2"}, {"measurement": "ID2 abundance", "setting": "proteasome [2]; wild-type DT40 cells", "value": "not"}, {"measurement": "endogenous ID2 abundance", "setting": "proteasome [3]", "value": "ID2 accumulates"}]}, {"molecule": "CCN1C(=O)C=CC1=O", "note": "[N-ethylmaleimide]", "values": [{"measurement": "decrease in ID2 ubiquitination by USP1", "setting": "USP1", "value": "sensitive"}]}, {"molecule": "doxycycline-induced USP1 shRNA: doxycycline-inducible pTRIPZ shRNA targeting human USP1, 5′-AGGCAATACTTGCTATCTTAAT-3′ (SEQ ID NO:12), Open Biosystems", "values": [{"measurement": "xenograft tumors that achieved stasis and differentiation in situ", "setting": "[4]; 143B USP1-deficient xenograft tumors", "value": "four of ten"}, {"measurement": "ALP activity in xenografts", "setting": "[4]; 143B xenografts", "value": "enhanced ALP activity"}, {"measurement": "ID1 and ID2 in xenografts", "setting": "[4]; 143B xenografts, doxycycline", "value": "reduced ID1 and ID2"}, {"measurement": "USP1 expression in xenografts", "setting": "[4]; 143B xenografts, doxycycline", "value": "suppressed USP1 expression"}, {"measurement": "tumor growth", "setting": "[4]; 143B xenografts, doxycycline", "value": "reduced 143B tumor growth"}, {"measurement": "osteogenic gene expression in xenografts", "setting": "[4]; 143B xenografts, RT-PCR, in situ hybridization", "value": "promoted OSTEONECTIN, RUNX2, SPP1/OSTEOPONTIN, OSTERIX, and BGLAP/OSTEOCALCIN expression"}]}, {"molecule": "B1", "values": [{"measurement": "in vitro deubiquitination assay (HA-ubiquitin immunoblot of ID2-Flag)", "setting": "[5]", "value": "Ubiquitinated ID2 was decreased by wild-type USP1 but not USP1 C90S"}]}, {"molecule": "B2", "values": [{"measurement": "in vitro deubiquitination assay (HA-ubiquitin immunoblot of ID2-Flag)", "setting": "[5]", "value": "Ubiquitinated ID2 was decreased by wild-type USP1 but not USP1 C90S"}]}, {"molecule": "B3", "values": [{"measurement": "binding result", "setting": "[6]", "value": "binds"}]}, {"molecule": "B4", "values": [{"measurement": "deubiquitinating activity against ID2", "setting": "[7]", "value": "unlike USP1, USP33 lacked deubiquitinating activity against ID2 (data not shown)"}]}]}
